The supplement of paper PMC10307832

What was measured:
Test in all cases: relative viability (nuclei count vs DMSO), 5 days (fraction); higher = more cells survive
[1] = compound: COc1cc2c(Oc3ccc4[nH]c(C)cc4c3F)ncnc2cc1OCCCN1CCCC1 [Cediranib]
Method in brief: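 Lung cancer cell lines in 1536-well plates were kept overnight at 37 °C, then pinned with five library-drug doses (not always all listed) spaced by √10 on vehicle-anchored plates. After 5 days without medium change, cells were fixed, permeabilised and Hoechst-stained in one step, imaged at 4×, and nuclei were counted with MetaXpress. Viability is treated-well nuclei divided by vehicle-well nuclei, taken as the median over plates. Plates passed only with control CV below 25% and at least one doubling.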

[2] = compound: COc1cc2c(Oc3ccc4[nH]c(C)cc4c3F)ncnc2cc1OCCCN1CCCC1 [Cediranib] + O=C(c1cc(Cc2n[nH]c(=O)c3ccccc23)ccc1F)N1CCN(C(=O)C2CC2)CC1 [Olaparib] (partner 8 µM)
Method in brief: (§1)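 One day after seeding in 1536-well plates, lung cancer cell lines were dosed by pin tool. Dosing was either single-drug or a fixed anchor-drug dose plus five library-drug doses (not always all listed) in √10 steps. After 5 days, nuclei were stained in one fix-and-stain step and counted on 4× images, and relative viability is the nuclei count of treated wells over that of vehicle wells, given as the median of duplicate plates.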

[3] = compound: O=C(C[C@H]1NCCC[C@@H]1O)Cn1cnc2cc(Br)c(Cl)cc2c1=O (racemic) [Halofuginone] + CS(=O)(=O)N1CCN(Cc2cc3nc(-c4cccc5[nH]ncc45)nc(N4CCOCC4)c3s2)CC1 [Pictilisib] (partner 1 µM)
Method in brief: as §1

[4] = compound: O=C(C[C@H]1NCCC[C@@H]1O)Cn1cnc2cc(Br)c(Cl)cc2c1=O (racemic) [Halofuginone] + Cc1cc(Nc2cc(N3CCN(C)CC3)nc(Sc3ccc(NC(=O)C4CC4)cc3)n2)n[nH]1 [Tozasertib] (partner 0.1 µM)
Method in brief: as §1

| Cell Line | relative viability ([1]; 0.04 µM) | relative viability ([1]; 0.4 µM) | relative viability ([1]; 1.265 µM) | relative viability ([1]; 4 µM) | relative viability ([2]; first compound 0.04 µM) | relative viability ([2]; first compound 0.1265 µM) | relative viability ([2]; first compound 0.4 µM) | relative viability ([2]; first compound 1.265 µM) | relative viability ([2]; first compound 4 µM) | relative viability ([3]; first compound 0.001 µM) | relative viability ([3]; first compound 0.003162 µM) | relative viability ([3]; first compound 0.01 µM) | relative viability ([3]; first compound 0.03162 µM) | relative viability ([3]; first compound 0.1 µM) | relative viability ([4]; first compound 0.001 µM) | relative viability ([4]; first compound 0.003162 µM) | relative viability ([4]; first compound 0.01 µM) | relative viability ([4]; first compound 0.03162 µM) | relative viability ([4]; first compound 0.1 µM) | relative viability ([1]; 0.1265 µM) |
| --- | --- | --- | --- | --- | --- | --- | --- | --- | --- | --- | --- | --- | --- | --- | --- | --- | --- | --- | --- | --- |
| HCC-44 | 0.996 | 0.945 | 0.959 | 0.983 | 0.966 | 0.894 | 0.963 | 0.932 | 0.974 | 0.545 | 0.605 | 0.592 | 0.67 | 0.399 | 1.16 | 0.994 | 1 | 0.824 | 0.17 | – |
| HCC-78 | 0.963 | 0.965 | 1.03 | 1 | 0.963 | 1.01 | 0.83 | 0.96 | 1.04 | 0.216 | 0.193 | 0.206 | 0.21 | 0.221 | 0.491 | 0.422 | 0.503 | 0.347 | 0.427 | 1.05 |
| HCC-366 | 1.1 | 0.993 | 1.02 | 1 | 0.413 | 0.354 | 0.392 | 0.362 | 0.395 | 0.231 | 0.14 | 0.216 | 0.144 | 0.184 | 0.142 | 0.115 | 0.0951 | 0.104 | 0.0283 | 1.02 |
| HCC-827 | 1.19 | 1.02 | 1.04 | 1.03 | 0.466 | 0.62 | 0.661 | 0.617 | 0.646 | 0.874 | 1.05 | 0.962 | 1.08 | 0.777 | 0.419 | 0.39 | 0.427 | 0.398 | 0.456 | – |
| HOP-62 | 1.07 | 0.892 | 0.983 | 1.08 | 0.385 | – | 0.425 | 0.503 | 0.688 | 0.661 | 0.781 | 0.766 | 0.53 | 0.239 | 0.445 | 0.406 | 0.386 | 0.32 | 0.231 | 0.695 |
| IA-LM | 0.951 | 0.877 | 0.888 | 1.08 | 0.993 | 0.848 | 0.824 | 0.867 | 1.02 | 0.415 | 0.26 | 0.288 | 0.256 | 0.057 | – | – | – | – | – | 0.948 |
| LC-2-ad | 1.04 | 0.953 | 0.955 | 0.785 | 0.737 | 0.689 | 0.664 | 0.732 | 0.839 | 0.66 | 0.551 | 0.492 | 0.455 | 0.269 | 0.476 | 0.508 | 0.422 | 0.351 | 0.225 | 0.871 |
| LCLC-97TM1 | 1.04 | 0.941 | 0.949 | 0.984 | 0.468 | – | 0.384 | 0.301 | 0.504 | 0.289 | 0.216 | 0.179 | 0.201 | 0.14 | 0.265 | 0.247 | 0.203 | 0.243 | 0.208 | – |
| LCLC-103H | 1.07 | 0.952 | 1.06 | 1.06 | 0.797 | 0.836 | 0.739 | 0.749 | 0.658 | 0.627 | 0.605 | 0.601 | 0.668 | 0.685 | 0.503 | 0.59 | 0.446 | 0.443 | 0.425 | 1.03 |
| LK-2 | 1.03 | 0.909 | 0.965 | 0.821 | 0.67 | 0.334 | 0.681 | 0.802 | 0.733 | 0.577 | 0.792 | 0.531 | 0.664 | 0.532 | 0.163 | 0.164 | 0.184 | 0.16 | 0.181 | 0.86 |
| NCI-H522 | 1.04 | 0.947 | 0.961 | 1.02 | 0.685 | 0.631 | 0.678 | 0.69 | 0.646 | – | – | – | – | – | 0.528 | 0.566 | 0.572 | 0.512 | 0.491 | 0.745 |
| NCI-H1299 | 1.02 | 0.99 | 1.03 | 1.09 | 0.999 | 0.96 | 0.92 | 0.949 | 0.97 | 1.01 | 0.806 | 0.619 | 0.232 | 0.077 | – | – | – | – | – | 1.02 |
| NCI-H1563 | 0.97 | 1.03 | 0.961 | 1.13 | – | – | – | – | – | 0.671 | 0.644 | 0.685 | 0.588 | 0.575 | – | – | – | – | – | 1.39 |
| NCI-H1623 | 1 | 0.879 | 1.04 | 1.07 | – | – | – | – | – | – | – | – | – | – | 0.487 | 0.44 | 0.459 | 0.459 | 0.426 | 0.599 |
| NCI-H1648 | 0.627 | 0.71 | 0.773 | 0.791 | 0.519 | 0.824 | 0.901 | 1.2 | 1.31 | – | – | – | – | – | 0.763 | 0.526 | 0.643 | 0.44 | 0.4 | 0.423 |
| NCI-H1703 | 0.819 | 0.471 | 0.363 | 0.393 | 0.389 | 0.388 | 0.173 | 0.163 | 0.243 | 0.252 | 0.264 | 0.247 | 0.214 | 0.193 | – | – | – | – | – | 0.677 |
| NCI-H1792 | 0.862 | 0.84 | 0.931 | 0.795 | – | 0.713 | 0.321 | 0.435 | 0.557 | 0.336 | 0.228 | 0.3 | 0.34 | 0.243 | – | – | – | – | – | 0.846 |
| NCI-H2342 | 1 | 0.899 | 0.746 | 1.07 | 0.419 | 0.398 | 0.46 | 0.455 | 0.458 | – | – | – | – | – | 0.522 | 0.493 | 0.498 | 0.478 | 0.506 | 1.1 |
| SW 900 | 0.811 | 0.737 | 0.835 | 0.952 | 0.915 | 0.845 | 0.794 | 0.899 | 0.925 | – | – | – | – | – | 0.611 | 0.557 | 0.558 | 0.46 | 0.258 | 0.774 |
